Test results from patent publication US20160101188A1, “NOVEL NANOCARRIER DELIVERED CANCER CHEMOTHERAPEUTIC AGENTS” (UNIVERSITY OF CINCINNATI, priority 2013, published 2016).

Each compound was assayed on MCF7 (breast cancer) cells (assay: MTT cytotoxicity assay in MCF7 breast cancer cells). Settings: 65 hours incubation, read-out: IC50, viability of MCF7 cells from the MTT assay.
Format: cell-based
Description: The cyctoxicity of compounds was determined in MCF 7 (breast cancer) cells.
MCF7 cells were grown in RPMI 1640 media with 10 nM estrogen and 1 mM insulin. Cells were tyripsinized and resuspended at a density of 2.2×10^4 cells per mL. 500 μL of this suspension was added to each well in a 24 well plate. The plates were incubated at 37° C. and 5% CO2 atmosphere overnight. The media was changed, and plates were dosed in triplicate with compound dissolved in DMSO. Cells were dosed not to exceed 0.5% DMSO in solution. Cells were dosed to a final concentration of 100, 50, 25, 12.5, and 6.25 μM of compound. 5-Flurouracil was used as a positive control and dosed in the same manner. Plates were incubated for 65 hours prior to the addition of MTT solution. 500 μL of a 193 μg/mL MTT and media solution was added to each well. Plates were incubated for 3 hours. The MTT solution was removed and 500 μL of DMSO was added to each well. Cells were imaged using GS 800 Bio Rad scanner and Quality One Software. IC50 curves were determined by plotting viability verses compound concentration. Kaleidagraph software was used to calculate the R value for each logarithmic curve fitting.
`CC(C)(C)C(OCc1c[nH]c(=O)[nH]c1=O)c1ccccc1` (stereo not shown) [KB-1-23, 5-[1-phenyl-2,2-(dimethyl)propoxymethyl]uracil] showed an IC50 of 59 µM. `COc1ccc(C(OCc2cn([C@H]3C[C@H](O)[C@@H](CO)O3)c(=O)[nH]c2=O)C(C)(C)C)cc1` (stereo partly shown) [KB-1-55, 5-[1-(4-methoxyphenyl)-2,2-(dimethyl)propoxymethyl]-2′-deoxyuridine] gave an IC50 of 183 µM. For `O=c1[nH]c(=O)n([C@H]2C[C@H](O)[C@@H](CO)O2)cc1COC(c1ccccc1)c1ccccc1[N+](=O)[O-]` (stereo partly shown) [KB-1-85, 5-[{(2-nitrophenyl)phenyl}methoxymethyl]-2′-deoxyundine], the IC50 was 50 µM. `CC(C)(C)CC(OCc1cn([C@H]2C[C@H](O)[C@@H](CO)O2)c(=O)[nH]c1=O)c1ccccc1[N+](=O)[O-]` (stereo partly shown) [KB-1-91, 5-[1-(2-nitrophenyl)-3,3-(dimethyl)butoxymethyl]-2′-deoxyuridine] showed an IC50 of 62 µM. With `Cc1ccccc1C(OCc1cn([C@H]2C[C@H](O)[C@@H](CO)O2)c(=O)[nH]c1=O)C(C)(C)C` (stereo partly shown) [KB-1-100, 5-[1-(2-methyl)phenyl-2,2-(dimethyl)propoxymethyl]-2′-deoxyuridine] the IC50 was 121 µM. `CC(C)(C)C(OCc1cn([C@H]2C[C@H](O)[C@@H](CO)O2)c(=O)[nH]c1=O)c1ccccc1CBr` (stereo partly shown) [KB-1-135, 5-[1-(2-bromomethyl)phenyl-2,2-(dimethyl)propoxymethyl]-2′-deoxyuridine] gave an IC50 of 72 µM. In the case of `CC(C)(C)C(OCc1cn([C@H]2C[C@H](O)[C@@H](CO)O2)c(=O)[nH]c1=O)c1ccc(I)cc1[N+](=O)[O-]` (stereo partly shown) [MPB-1-33, 5-[1-(4-iodo-2-nitrophenyl)-2,2-(dimethyl)propoxymethyl]-2′-deoxyuridine], the IC50 is reported as 56 ± 6 µM. `COc1ccccc1C(OCc1cn([C@H]2C[C@H](O)[C@@H](CO)O2)c(=O)[nH]c1=O)C(C)(C)C` (stereo partly shown) [MPB-1-36, 5-[1-(2-methoxyphenyl)-2,2-(dimethyl)propoxymethyl]-2′-deoxyuridine] was tested, and the IC50 was 94 µM. For `CC(C)(C)C(OCc1cn([C@H]2C[C@H](O)[C@@H](CO)O2)c(=O)[nH]c1=O)c1ccc(C#CCOc2ccc3ccc(=O)oc3c2)cc1[N+](=O)[O-]` (stereo partly shown) [MPB-1-41, 5-[1-(4-{3-(7-coumarin)oxy}proyn-1-yl-2-nitrophenyl)-2,2-(dimethyl)propoxymethyl]-2′-deoxyuridine], the IC50 was 16 ± 3 µM. `CC(C)(C)C(OCc1cn([C@H]2C[C@H](O)[C@@H](CO)O2)c(=O)[nH]c1=O)c1ccccc1Cl` (stereo partly shown) [MPB-1-49, 5-[1-(2-chlorophenyl)-2,2-(dimethyl)propoxymethyl]-2′-deoxyundine] showed an IC50 of 80 µM. `CC(C)(C)C(OCc1cn([C@H]2C[C@H](O)[C@@H](CO)O2)c(=O)[nH]c1=O)c1c([N+](=O)[O-])cccc1[N+](=O)[O-]` (stereo partly shown) [MPB-1-55, 5-[1-(2,6-dinitrophenyl)-2,2-(dimethyl)propoxymethyl]-2′-deoxyuridine] gave an IC50 of 96 µM. Work on `CC(C)(C)C(OCc1cn([C@H]2C[C@H](O)[C@@H](CO)O2)c(=O)[nH]c1=O)c1c(Cl)cccc1Cl` (stereo partly shown) [MPB-1-57, 5-[1-(2,6-dichlorophenyl)-2,2-(dimethyl)propoxymethyl]-2′-deoxyuridine] yielded an IC50 of 60 µM. For `O=c1[nH]c(=O)n([C@H]2C[C@H](O)[C@@H](CO)O2)cc1COC(c1ccccc1)C1CCCCC1` (stereo partly shown) [PRW-1-13, 5-[1-(phenyl)-1-(cyclohexyl)methoxymethyl]-2′-deoxyundine], the IC50 was 93 µM.

Same assay, conditions: Homo sapiens, MCF7, 65 h, 65 hours incubation, read-out: IC50, viability of MCF7 cells from the MTT assay
For `CC(C)C(OCc1c[nH]c(=O)[nH]c1=O)c1ccccc1` (stereo not shown) [KB-1-1, 5-[1-phenyl-2-(methyl)propoxymethyl]uracil], the IC50 was > 200 µM. In the case of `O=c1[nH]c(=O)n([C@H]2C[C@H](O)[C@@H](CO)O2)cc1COC(c1ccccc1)c1ccccc1` [KB-1-10, 5-[(diphenyl)methoxymethyl]-2′-deoxyuridine], the IC50 is reported as 160 µM. In the case of `CC(C)COC(c1ccccc1)c1cn([C@H]2C[C@H](O)[C@@H](CO)O2)c(=O)[nH]c1=O` (stereo partly shown) [MPB-1-25, 5-[1-(phenyl)-2-(methyl)-1-propoxymethyl]-2′-deoxyuridine], the IC50 is reported as > 150 µM.
